Laboratory results as given in patent publication US20190183922A1, “NOVEL ACTIVE IMMUNOMODULATORY AGENT AND COMPOSITION CONTAINING SAME” (UNIVERSITE CLERMONT AUVERGNE, priority 2016, published 2019).
Where “and” joins values, the source holds several entries; their conditions need not be identical. Equal values may be shown once.

Tested on: co-culture of human dermal endothelial cells (HMVECs) and normal human dermal fibroblasts (NHDFs)
Assay: Formation of pseudotubes in an HMVEC+NHDF co-culture (anti-vWF immunolabelling, image analysis)
Assay type: cell-based
Protocol: The effects of the high-molecular-weight sulphated polysaccharide (HMWP) on the formation of pseudotubes was studied in a co-culture of human dermal endothelial cells (HMVECs) and normal human dermal fibroblasts (NHDFs), in basal condition or stimulated by VEGF (analysis by immunolabelling in situ).
The HMVEC and NHDF cells in co-culture were seeded in 96-well plates and cultured for 24 hours in culture medium.
The culture medium used is as follows: • EBM-2 (Endothelial cell basal medium 2) supplemented with 5% foetal calf serum (FCS), rhEGF, rhFGF, R3 IGF-1, hydrocortisone, vitamin C, gentamycin, • DMEM supplemented with 2 mM L-glutamine, 50 U/ml penicillin, 50 μg/ml streptomycin and 10% FCS.
The medium was then replaced with test medium containing or not containing (control) the compound to be tested and/or the VEGF inductor reference tested at 100 ng/ml; the compound was tested simultaneously in basal and stimulated condition (in the absence and in the presence of VEGF).
The test medium used was as follows: • EBM-2 (Endothelial cell basal medium 2) supplemented with rhEGF, rhFGF, R3 IGF-1, hydrocortisone, vitamin C, gentamycin, • DMEM supplemented with 2 mM L-glutamine, 50 U/ml penicillin, 50 μg/ml streptomycin and 1% FCS.
The cells were then incubated for 7 days, repeating the treatment after incubating for 72 hours. All the experimental conditions were produced in triplicate (n=3).
After incubation, the culture medium was removed and the cells were rinsed, fixed and permeabilized. The cells were then labelled with anti-VWF (Von Willebrand Factor) primary antibody. […] Simultaneously, the cell nuclei were coloured with Hoechst 33258 (bis-benzimide).
The formation of the pseudotubes was observed using a NIKON Diaphot 300 microscope (×4 objective lens). The digital images (1 photo per well) were then recorded with a NIKON DS-Ri1 camera and the NIS-Elements 4.13.04 software.
The labelling was quantified by measuring the entire surface of the pseudotubes using ImageJ software.
The formation of pseudotubes in the co-culture of endothelial cells (HMVECs) and dermal fibroblasts (NHDFs) after incubating for 7 days was measured by image analysis following immunolabelling with an anti-vWF antibody, the vWF being specifically expressed by the HMVEC cells.
The stimulation percentage is calculated according to the following formula: […]
The inhibition percentage is calculated according to the following formula: […]

[1] = VEGF inductor reference 100 ng/ml, 7 days

VEGF
% Control [1]: 1759% | % Stimulation [1]: 1659% | Surface of the pseudotubes (VEGF inductor reference 100 ng/ml, 7 days, individual wells): 2.15 mm^2 and 2.52 mm^2 and 1.84 mm^2 | Average Surface (VEGF inductor reference 100 ng/ml, 7 days, n=3): 2.17 mm^2 | Organization of the endothelial cells into pseudotubes (reference VEGF 100 ng/ml): clearly led to an organization of the endothelial cells into pseudotubes
